Measured values taken from ChEMBL document CHEMBL4507291 (2021).

Assays:
[1] = biological target: T1, cGMP-dependent protein kinase 1 (Homo sapiens) (UniProt Q13976)
T1 sequence (whole entry): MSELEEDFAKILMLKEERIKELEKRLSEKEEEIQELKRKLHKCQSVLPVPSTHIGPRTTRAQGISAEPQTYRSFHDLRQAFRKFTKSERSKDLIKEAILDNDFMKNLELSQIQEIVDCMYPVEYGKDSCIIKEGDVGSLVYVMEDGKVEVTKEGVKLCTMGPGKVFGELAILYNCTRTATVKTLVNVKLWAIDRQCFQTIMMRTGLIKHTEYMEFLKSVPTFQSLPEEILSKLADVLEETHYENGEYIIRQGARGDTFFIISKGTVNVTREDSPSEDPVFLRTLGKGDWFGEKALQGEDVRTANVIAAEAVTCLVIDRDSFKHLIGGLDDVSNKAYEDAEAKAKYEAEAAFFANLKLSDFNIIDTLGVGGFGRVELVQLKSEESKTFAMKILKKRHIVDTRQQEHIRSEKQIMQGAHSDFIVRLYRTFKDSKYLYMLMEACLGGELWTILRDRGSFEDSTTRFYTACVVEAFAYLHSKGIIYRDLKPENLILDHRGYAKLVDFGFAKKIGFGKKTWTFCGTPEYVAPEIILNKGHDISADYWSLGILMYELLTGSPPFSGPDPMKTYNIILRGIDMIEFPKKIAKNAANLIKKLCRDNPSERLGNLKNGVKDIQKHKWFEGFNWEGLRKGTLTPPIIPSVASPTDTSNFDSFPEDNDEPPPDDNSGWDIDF

[2] = biological target: Dual specificity mitogen-activated protein kinase kinase 1 (Homo sapiens) (UniProt Q02750)
Dual specificity mitogen-activated protein kinase kinase 1 (Homo sapiens), sequence (Q02750 whole entry): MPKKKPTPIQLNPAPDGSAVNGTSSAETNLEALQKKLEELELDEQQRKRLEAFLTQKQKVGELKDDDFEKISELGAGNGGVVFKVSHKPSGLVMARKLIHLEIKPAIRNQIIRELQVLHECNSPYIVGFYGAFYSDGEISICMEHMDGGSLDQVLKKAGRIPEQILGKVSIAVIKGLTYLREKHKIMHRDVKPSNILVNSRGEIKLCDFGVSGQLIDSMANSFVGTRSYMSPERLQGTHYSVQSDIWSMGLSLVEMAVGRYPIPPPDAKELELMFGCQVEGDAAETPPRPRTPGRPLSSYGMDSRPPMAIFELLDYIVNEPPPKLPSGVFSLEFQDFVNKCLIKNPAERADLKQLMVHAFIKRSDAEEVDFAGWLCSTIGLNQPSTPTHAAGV

[3] = biological target: 5'-AMP-activated protein kinase catalytic subunit alpha-2 (Homo sapiens) (UniProt P54646)
5'-AMP-activated protein kinase catalytic subunit alpha-2 (Homo sapiens), sequence (P54646 whole entry, looked up): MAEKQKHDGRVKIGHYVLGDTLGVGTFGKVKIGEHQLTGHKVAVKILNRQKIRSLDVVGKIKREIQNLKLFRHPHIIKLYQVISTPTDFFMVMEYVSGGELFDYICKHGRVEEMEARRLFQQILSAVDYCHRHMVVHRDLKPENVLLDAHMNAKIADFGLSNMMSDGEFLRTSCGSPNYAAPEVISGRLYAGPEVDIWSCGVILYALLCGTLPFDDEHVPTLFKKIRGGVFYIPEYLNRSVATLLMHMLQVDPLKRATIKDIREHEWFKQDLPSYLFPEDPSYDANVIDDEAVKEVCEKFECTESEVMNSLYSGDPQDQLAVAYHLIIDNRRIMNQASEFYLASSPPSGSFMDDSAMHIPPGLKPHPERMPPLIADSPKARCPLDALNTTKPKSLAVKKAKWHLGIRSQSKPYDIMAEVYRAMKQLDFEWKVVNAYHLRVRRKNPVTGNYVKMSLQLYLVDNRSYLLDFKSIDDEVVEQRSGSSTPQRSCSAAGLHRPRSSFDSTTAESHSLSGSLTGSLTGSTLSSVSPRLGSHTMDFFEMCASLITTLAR

[4] = biological target: Protein-tyrosine kinase 6 (Homo sapiens) (UniProt Q13882)
Protein-tyrosine kinase 6 (Homo sapiens), sequence (Q13882 whole entry, looked up): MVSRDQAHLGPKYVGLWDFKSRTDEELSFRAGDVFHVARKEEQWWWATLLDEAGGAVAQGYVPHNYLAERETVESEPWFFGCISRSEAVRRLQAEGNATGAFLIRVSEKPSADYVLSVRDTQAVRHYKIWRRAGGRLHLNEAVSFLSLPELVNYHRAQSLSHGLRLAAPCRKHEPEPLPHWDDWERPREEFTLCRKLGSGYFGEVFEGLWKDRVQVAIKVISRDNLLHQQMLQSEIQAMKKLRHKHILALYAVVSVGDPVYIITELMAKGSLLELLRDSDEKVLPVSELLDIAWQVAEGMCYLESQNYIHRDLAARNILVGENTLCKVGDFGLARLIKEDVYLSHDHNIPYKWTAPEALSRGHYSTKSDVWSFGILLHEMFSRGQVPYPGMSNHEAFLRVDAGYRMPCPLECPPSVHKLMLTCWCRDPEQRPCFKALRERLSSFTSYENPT

[5] = biological target: Ribosomal protein S6 kinase alpha-4 (Homo sapiens) (UniProt O75676)
[6] = biological target: Phosphorylase b kinase regulatory subunit alpha, liver isoform (Homo sapiens) (UniProt P46019)
Phosphorylase b kinase regulatory subunit alpha, liver isoform (Homo sapiens), sequence (P46019 whole entry, canonical isoform): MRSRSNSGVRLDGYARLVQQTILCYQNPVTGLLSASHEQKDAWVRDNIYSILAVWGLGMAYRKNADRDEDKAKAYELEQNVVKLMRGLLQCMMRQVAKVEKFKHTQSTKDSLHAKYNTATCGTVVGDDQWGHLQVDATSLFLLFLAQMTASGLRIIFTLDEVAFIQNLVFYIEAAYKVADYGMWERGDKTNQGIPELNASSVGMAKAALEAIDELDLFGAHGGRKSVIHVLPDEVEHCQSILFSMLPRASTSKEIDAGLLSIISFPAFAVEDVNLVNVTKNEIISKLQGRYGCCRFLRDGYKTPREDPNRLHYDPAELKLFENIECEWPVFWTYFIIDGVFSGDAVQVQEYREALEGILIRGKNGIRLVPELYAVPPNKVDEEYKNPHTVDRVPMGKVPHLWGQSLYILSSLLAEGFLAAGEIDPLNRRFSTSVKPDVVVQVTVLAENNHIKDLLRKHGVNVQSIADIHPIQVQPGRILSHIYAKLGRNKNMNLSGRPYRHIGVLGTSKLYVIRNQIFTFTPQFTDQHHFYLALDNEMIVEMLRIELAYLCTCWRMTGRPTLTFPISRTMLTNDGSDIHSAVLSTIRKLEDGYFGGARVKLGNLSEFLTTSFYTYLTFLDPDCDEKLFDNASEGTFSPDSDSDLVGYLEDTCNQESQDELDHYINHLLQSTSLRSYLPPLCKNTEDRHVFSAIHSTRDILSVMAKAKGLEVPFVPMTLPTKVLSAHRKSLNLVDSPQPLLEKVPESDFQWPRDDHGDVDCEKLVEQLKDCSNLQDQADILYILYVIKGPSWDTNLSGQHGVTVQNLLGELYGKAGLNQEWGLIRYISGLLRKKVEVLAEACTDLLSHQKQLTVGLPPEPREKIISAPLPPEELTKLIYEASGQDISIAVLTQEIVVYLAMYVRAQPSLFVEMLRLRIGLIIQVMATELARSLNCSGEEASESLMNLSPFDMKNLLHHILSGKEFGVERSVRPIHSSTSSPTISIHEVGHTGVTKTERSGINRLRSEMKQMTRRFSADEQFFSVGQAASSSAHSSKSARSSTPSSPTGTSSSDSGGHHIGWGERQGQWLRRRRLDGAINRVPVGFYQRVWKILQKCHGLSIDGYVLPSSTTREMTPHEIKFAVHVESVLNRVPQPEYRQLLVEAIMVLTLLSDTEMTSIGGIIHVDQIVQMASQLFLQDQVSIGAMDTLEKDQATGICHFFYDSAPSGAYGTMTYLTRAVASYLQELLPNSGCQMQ

[7] = biological target: T2, NUAK family SNF1-like kinase 1 (Homo sapiens) (UniProt O60285)
T2 sequence (whole entry): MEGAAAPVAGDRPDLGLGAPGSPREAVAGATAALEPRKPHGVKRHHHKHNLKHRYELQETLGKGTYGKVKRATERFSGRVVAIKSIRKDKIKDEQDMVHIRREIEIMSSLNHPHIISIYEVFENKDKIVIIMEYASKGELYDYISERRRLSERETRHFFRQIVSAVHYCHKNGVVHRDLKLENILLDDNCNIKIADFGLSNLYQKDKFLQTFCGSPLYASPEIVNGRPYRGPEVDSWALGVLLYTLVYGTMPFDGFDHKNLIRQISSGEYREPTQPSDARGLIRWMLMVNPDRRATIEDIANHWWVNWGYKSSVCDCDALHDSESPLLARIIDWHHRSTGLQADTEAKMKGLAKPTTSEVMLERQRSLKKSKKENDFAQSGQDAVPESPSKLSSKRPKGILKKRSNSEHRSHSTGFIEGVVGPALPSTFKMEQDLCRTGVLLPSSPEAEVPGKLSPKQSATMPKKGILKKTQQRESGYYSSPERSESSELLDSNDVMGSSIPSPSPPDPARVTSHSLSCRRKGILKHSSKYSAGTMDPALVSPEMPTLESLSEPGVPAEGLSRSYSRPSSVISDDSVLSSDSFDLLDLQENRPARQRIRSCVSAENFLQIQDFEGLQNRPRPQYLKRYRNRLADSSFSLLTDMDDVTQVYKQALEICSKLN

[8] = biological target: T3, Muscarinic acetylcholine receptor M1 (Homo sapiens) (UniProt P11229); conditions: Compound concentration 10.0 uM
T3 sequence (whole entry): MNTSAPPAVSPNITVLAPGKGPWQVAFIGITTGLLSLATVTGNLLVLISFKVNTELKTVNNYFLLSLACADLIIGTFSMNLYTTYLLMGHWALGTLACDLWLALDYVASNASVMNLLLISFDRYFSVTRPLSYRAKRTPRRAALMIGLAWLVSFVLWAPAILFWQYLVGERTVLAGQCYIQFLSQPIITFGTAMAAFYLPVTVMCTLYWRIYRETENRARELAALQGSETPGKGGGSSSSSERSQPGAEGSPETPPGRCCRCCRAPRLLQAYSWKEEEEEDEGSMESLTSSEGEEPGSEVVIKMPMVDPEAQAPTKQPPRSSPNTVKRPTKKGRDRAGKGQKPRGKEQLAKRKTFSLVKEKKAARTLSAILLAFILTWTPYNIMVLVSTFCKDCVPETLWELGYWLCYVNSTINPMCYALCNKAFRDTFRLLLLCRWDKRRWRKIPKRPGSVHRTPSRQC

[9] = biological target: Serine/threonine-protein kinase pim-2 (Homo sapiens) (UniProt Q9P1W9)
Serine/threonine-protein kinase pim-2 (Homo sapiens), sequence (Q9P1W9 whole entry, looked up): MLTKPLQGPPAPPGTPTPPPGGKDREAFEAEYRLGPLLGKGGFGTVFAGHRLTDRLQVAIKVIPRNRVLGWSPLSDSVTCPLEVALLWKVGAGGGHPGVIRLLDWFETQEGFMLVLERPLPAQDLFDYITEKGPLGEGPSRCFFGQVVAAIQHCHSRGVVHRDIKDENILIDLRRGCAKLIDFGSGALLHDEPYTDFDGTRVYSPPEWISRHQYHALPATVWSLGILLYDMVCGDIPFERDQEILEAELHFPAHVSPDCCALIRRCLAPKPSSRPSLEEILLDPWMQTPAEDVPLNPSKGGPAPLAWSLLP

[10] = biological target: Platelet-derived growth factor receptor beta (Homo sapiens) (UniProt P09619)
[11] = biological target: Fibroblast growth factor receptor 3 (Homo sapiens) (UniProt P22607)
Fibroblast growth factor receptor 3 (Homo sapiens), sequence (P22607 23-806 limits assumed): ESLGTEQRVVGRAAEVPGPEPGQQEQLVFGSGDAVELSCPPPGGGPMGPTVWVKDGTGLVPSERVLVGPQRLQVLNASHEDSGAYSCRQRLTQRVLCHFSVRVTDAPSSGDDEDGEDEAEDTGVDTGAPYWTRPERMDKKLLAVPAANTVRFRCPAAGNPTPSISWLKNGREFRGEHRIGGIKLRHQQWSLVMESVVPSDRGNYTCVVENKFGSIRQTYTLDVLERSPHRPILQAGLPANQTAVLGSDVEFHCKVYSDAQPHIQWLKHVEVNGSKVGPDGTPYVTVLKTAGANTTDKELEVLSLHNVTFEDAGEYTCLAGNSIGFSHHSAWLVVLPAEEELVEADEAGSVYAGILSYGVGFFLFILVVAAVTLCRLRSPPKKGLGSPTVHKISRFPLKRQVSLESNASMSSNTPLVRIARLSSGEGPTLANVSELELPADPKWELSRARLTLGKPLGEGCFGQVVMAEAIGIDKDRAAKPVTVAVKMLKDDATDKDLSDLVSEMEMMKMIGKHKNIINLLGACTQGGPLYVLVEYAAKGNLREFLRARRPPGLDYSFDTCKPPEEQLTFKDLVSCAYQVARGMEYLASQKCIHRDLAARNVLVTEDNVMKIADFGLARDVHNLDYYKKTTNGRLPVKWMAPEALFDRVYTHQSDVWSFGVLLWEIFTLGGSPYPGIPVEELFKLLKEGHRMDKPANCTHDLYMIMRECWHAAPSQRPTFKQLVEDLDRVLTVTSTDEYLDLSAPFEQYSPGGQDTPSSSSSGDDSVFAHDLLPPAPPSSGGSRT

[12] = biological target: Ephrin type-A receptor 2 (Homo sapiens) (UniProt P29317)
[13] = biological target: Sodium-dependent noradrenaline transporter (Homo sapiens, UniProt P23975); conditions: Compound concentration 10.0 uM
Sodium-dependent noradrenaline transporter, sequence (P23975 whole entry): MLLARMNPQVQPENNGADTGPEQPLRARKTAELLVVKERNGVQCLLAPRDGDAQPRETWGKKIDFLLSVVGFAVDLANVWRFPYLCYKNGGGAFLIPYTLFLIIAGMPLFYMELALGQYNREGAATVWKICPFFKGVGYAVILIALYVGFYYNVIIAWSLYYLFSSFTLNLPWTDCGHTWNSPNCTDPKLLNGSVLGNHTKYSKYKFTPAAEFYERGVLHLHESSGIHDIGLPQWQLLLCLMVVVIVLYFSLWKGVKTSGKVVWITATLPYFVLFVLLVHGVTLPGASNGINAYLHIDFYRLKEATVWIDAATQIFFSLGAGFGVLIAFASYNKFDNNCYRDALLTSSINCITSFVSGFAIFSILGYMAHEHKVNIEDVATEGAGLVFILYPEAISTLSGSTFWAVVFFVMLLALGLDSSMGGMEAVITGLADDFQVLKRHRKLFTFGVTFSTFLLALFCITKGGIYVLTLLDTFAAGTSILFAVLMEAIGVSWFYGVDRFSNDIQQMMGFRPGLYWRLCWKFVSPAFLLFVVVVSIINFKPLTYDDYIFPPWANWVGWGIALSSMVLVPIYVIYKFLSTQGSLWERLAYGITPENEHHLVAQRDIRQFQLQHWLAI

[14] = biological target: T4, Serine/threonine-protein kinase 17A (Homo sapiens) (UniProt Q9UEE5)
T4 sequence (whole entry): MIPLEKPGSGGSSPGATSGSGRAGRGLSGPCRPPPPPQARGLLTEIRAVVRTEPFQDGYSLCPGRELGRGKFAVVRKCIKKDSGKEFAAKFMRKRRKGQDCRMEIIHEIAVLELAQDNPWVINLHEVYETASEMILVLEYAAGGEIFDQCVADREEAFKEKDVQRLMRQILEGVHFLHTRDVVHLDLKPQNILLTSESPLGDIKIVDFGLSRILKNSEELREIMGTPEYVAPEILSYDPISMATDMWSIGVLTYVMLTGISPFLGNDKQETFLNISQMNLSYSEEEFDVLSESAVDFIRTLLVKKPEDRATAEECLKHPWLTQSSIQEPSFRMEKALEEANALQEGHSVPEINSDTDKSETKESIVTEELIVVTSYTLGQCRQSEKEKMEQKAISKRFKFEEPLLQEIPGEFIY

[15] = biological target: SRSF protein kinase 3 (Homo sapiens) (UniProt Q9UPE1)
SRSF protein kinase 3 (Homo sapiens), sequence (Q9UPE1 whole entry): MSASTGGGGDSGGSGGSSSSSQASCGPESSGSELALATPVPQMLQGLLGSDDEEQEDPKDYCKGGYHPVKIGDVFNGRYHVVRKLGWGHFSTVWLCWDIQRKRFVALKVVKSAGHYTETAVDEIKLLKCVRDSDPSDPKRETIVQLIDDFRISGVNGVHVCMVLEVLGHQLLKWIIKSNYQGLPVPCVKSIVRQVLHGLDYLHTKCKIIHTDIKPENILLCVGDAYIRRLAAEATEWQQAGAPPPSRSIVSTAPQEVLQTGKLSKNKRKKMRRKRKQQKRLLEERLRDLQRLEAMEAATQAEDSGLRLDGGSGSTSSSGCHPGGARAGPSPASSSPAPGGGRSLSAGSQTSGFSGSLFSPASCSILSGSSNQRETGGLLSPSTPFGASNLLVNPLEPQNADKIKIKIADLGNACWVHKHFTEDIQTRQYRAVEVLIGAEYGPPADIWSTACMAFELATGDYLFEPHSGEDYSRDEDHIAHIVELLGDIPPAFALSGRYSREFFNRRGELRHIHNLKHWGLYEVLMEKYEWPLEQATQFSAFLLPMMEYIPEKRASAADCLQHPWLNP

[16] = Compound concentration 1000.0 nM
[17] = Compound concentration 100.0 nM

C[C@@H]1CN(c2cc(-c3nn(C)c4ccc(OC5(C)CC5)cc34)ncn2)C[C@H](C)O1 [MLi-2-NC]
inactive: residual activity [1, 16] 100% | residual activity [2, 16] 74% | residual activity [3, 16] 100% | residual activity [4, 16] 92% | residual activity [5, 16] 81% | residual activity [6, 16] 100% | residual activity [7, 16] 100% | inhibition [8] -1.02% | residual activity [9, 16] 100% | residual activity [10, 16] 100% | residual activity [11, 16] 100% | residual activity [12, 16] 100% | inhibition [13] 30.6% | residual activity [14, 16] 81% | residual activity [15, 16] 98%

C[C@@H]1CN(c2cc(-c3n[nH]c4ccc(OC5(C)CC5)cc34)ncn2)C[C@H](C)O1 [MLi-2]
inactive: residual activity [1, 17] 100% | residual activity [2, 17] 88% | residual activity [3, 17] 100% | residual activity [4, 17] 100% | residual activity [5, 17] 75% | residual activity [6, 17] 91% | residual activity [7, 17] 92% | inhibition [8] 3.04% | residual activity [9, 17] 88% | residual activity [10, 17] 73% | residual activity [11, 17] 74% | residual activity [12, 17] 72% | inhibition [13] 7.45% | residual activity [14, 17] 100% | residual activity [15, 17] 100%
